Assay results as given in patent US12570988B2, “Aptamers that bind thiamine analogs and derivatives” (MeiraGTx Gene Regulation Limited, priority 2020, dated 2026).

Experiments:
riboswitch 15D10 [1] = assay: Luciferase reporter with 15D10 riboswitch (Luci-15D10) in HEK 293 cells; assay type: cell-based, human; details: HEK 293 cells; for effect on luciferase expression from Luci-15D10: FIG. 9A, 9C; for fold induction at 50 µM: Homo sapiens, HEK293, 24 h, read-out: Fold increase in riboswitch 15D10-regulated luciferase expression, HEK; for fold induction at 50 µM / Fold increase in riboswitch 15D10-regulated luciferase expression, HEK: Table 2, 50 μM
Method: Transfection: 3.5×10^4 human embryonic kidney (HEK) 293 cells were plated in a 96-well flat bottom plate the day before transfection. Plasmid DNA (500 ng) was added to a tube or a 96-well U-bottom plate. […] Then, 50 μL of this diluted transfection reagent was added to the DNA, mixed, and incubated at RT for 20 min. Finally, 7 μL of this solution was added to a well of cells in the 96-well plate. Four hours after transfection, medium containing transfection solution was replaced by medium containing either TPP, fursultiamine, prosultiamine, bisbentiamine, beclotiamine hydrochloride, or sulbutiamine as aptamer inducers.
Firefly luciferase assay of cultured cells: Twenty-four hours after media change, plates were removed from the incubator, and equilibrated to RT for several minutes on a lab bench, then aspirated. Glo-lysis buffer (Promega, 100 μL, RT) was added, and the plates allowed to remain at RT for at least 5 minutes. Then, the well contents were mixed by 50 μL trituration, and 20 μL of each sample was mixed with 20 μL of bright-glo reagent (Promega) that had been diluted to 10% in glo-lysis buffer. 96 wells were spaced on an opaque white 384-well plate. Following a 5 min incubation at RT, luminescence was measured using a Tecan machine with 500 ms read time. The luciferase activity was expressed as mean arbitrary light units (ALU)±S.D., and fold induction was calculated as the quotient of the luciferase activity obtained from cells with TPP or analog treatment divided by the luciferase activity obtained from cells without TPP or analog treatment.

riboswitch 15D10 [2] = assay: Luciferase reporter with 15D10 riboswitch (Luci-15D10) in AML12 cells; assay type: cell-based, mouse; details: for relative potency in inducing luciferase expression: AML 12 cells, compared with fursultiamine or within groups; for fold induction at 50 µM: Mus musculus, AML12, 24 h, read-out: Fold increase in riboswitch 15D10-regulated luciferase expression, AML; for fold induction at 50 µM / Fold increase in riboswitch 15D10-regulated luciferase expression, AML: AML12 cells, Table 2, 50 μM

Row | Structure (SMILES) | effect on luciferase expression from Luci-15D10 (riboswitch 15D10 [1]) | fold induction at 50 µM (riboswitch 15D10 [1]) | fold induction at 50 µM (riboswitch 15D10 [2]) | other results
1 | C/C(=C(\CCO)SCOC(=O)C(C)C)N(C=O)Cc1cnc(C)nc1N [Compound M16, (Z)-((2-(N-((4-Amino-2-methylpyrimidin-5-yl)methyl)formamido)-5-hydroxypent-2-en-3-yl)thio)methyl isobutyrate] | increased |  |  | relative potency in inducing luciferase expression (riboswitch 15D10 [2]): more potent than fursultiamine
2 | C/C(=C(\CCO)SC(C)OC(=O)C(C)(C)C)N(C=O)Cc1cnc(C)nc1N (stereo not shown) [Compound M18, (Z)-1-((2-(N-((4-Amino-2-methylpyrimidin-5-yl)methyl)formamido)-5-hydroxypent-2-en-3-yl)thio)ethyl pivalate] | increased |  |  | 
3 | C/C(=C(\CCO)SC(=O)c1ccccc1)N(C=O)Cc1cnc(C)nc1N [Compound M26, (Z)—S-(2-(N-((4-Amino-2-methylpyrimidin-5-yl)methyl)formamido)-5-hydroxypent-2-en-3-yl) benzothioate] | increased luciferase expression |  |  | 
4 | C/C(=C(\CCO)SC(=O)C(C)C)N(C=O)Cc1cnc(C)nc1N [Compound M27, (Z)—S-(2-(N-((4-Amino-2-methylpyrimidin-5-yl)methyl)formamido)-5-hydroxypent-2-en-3-yl) 2-methylpropanethioate] | increased luciferase expression |  |  | 
5 | C/C(=C(\CCO)SC(=O)C(C)(C)C)N(C=O)Cc1cnc(C)nc1N [Compound M28, (Z)—S-(2-(N-((4-Amino-2-methylpyrimidin-5-yl)methyl)formamido)-5-hydroxypent-2-en-3-yl) 2,2-dimethylpropanethioate] | increased luciferase expression |  |  | 
6 | COc1ccc(C(=O)S/C(CCO)=C(/C)N(C=O)Cc2cnc(C)nc2N)cc1 [Compound M29, (Z)—S-(2-(N-((4-Amino-2-methylpyrimidin-5-yl)methyl)formamido)-5-hydroxypent-2-en-3-yl) 4-methoxybenzothioate] | increased luciferase expression |  |  | 
7 | C/C(=C(\CCO)SC(=O)c1c(Cl)cccc1Cl)N(C=O)Cc1cnc(C)nc1N [Compound M30, (Z)—S-(2-(N-((4-Amino-2-methylpyrimidin-5-yl)methyl)formamido)-5-hydroxypent-2-en-3-yl) 2,6-dichlorobenzothioate] | no effect on luciferase expression |  |  | 
8 | C/C(=C(\CCOP(=O)(O)O)SC(=O)C(C)(C)C)N(C=O)Cc1cnc(C)nc1N [Compound M31, (Z)—S-(2-(N-((4-Amino-2-methylpyrimidin-5-yl)methyl)formamido)-5-(phosphonooxy)pent-2-en-3-yl) 2,2-dimethylpropanethioate] | no effect on luciferase expression |  |  | 
9 | C/C(=C(\CCOP(=O)(O)O)SC(=O)c1c(Cl)cccc1Cl)N(C=O)Cc1cnc(C)nc1N [Compound M33, (Z)—S-(2-(N-((4-Amino-2-methylpyrimidin-5-yl)methyl)formamido)-5-(phosphonooxy)pent-2-en-3-yl) 2,6-dichlorobenzothioate] | no effect on luciferase expression |  |  | 
10 | C/C(=C(\CCO)SC(=O)c1cccc2ccccc12)N(C=O)Cc1cnc(C)nc1N [Compound M34, (Z)—S-(2-(N-((4-Amino-2-methylpyrimidin-5-yl)methyl)formamido)-5-hydroxypent-2-en-3-yl) naphthalene-1-carbothioate] | increased luciferase expression | 164 | 291 | relative potency in inducing luciferase expression (riboswitch 15D10 [1]; compared with fursultiamine or within Formula V/VI groups): most potent compound; relative potency in inducing luciferase expression (riboswitch 15D10 [2]): most potent inducer
11 | C/C(=C(\CCO)SC(=O)c1ccc(C)c2ccccc12)N(C=O)Cc1cnc(C)nc1N [Compound M37, (Z)—S-(2-(N-((4-amino-2-methylpyrimidin-5-yl)methyl)formamido)-5-hydroxypent-2-en-3-yl) 4-methylnaphthalene-1-carbothioate] |  | 76.2 | 134 | 
12 | CCOc1ccc2ccccc2c1C(=O)S/C(CCO)=C(/C)N(C=O)Cc1cnc(C)nc1N [Compound M38, (Z)—S-(2-(N-((4-amino-2-methylpyrimidin-5-yl)methyl)formamido)-5-hydroxypent-2-en-3-yl) 2-ethoxynaphthalene-1-carbothioate] |  | 1.2 | 1 | 
13 | C/C(=C(\CCO)SC(=O)c1ccc(Br)c2ccccc12)N(C=O)Cc1cnc(C)nc1N [Compound M39, (Z)—S-(2-(N-((4-amino-2-methylpyrimidin-5-yl)methyl)formamido)-5-hydroxypent-2-en-3-yl) 4-bromonaphthalene-1-carbothioate] |  | 103 | 127 | 
14 | C/C(=C(\CCO)SC(=O)c1cc2ccccc2c2ccccc12)N(C=O)Cc1cnc(C)nc1N [Compound M40, (Z)—S-(2-(N-((4-amino-2-methylpyrimidin-5-yl)methyl)formamido)-5-hydroxypent-2-en-3-yl) phenanthrene-9-carbothioate] |  |  |  | Fold increase in riboswitch 15D10-regulated luciferase expression, HEK (riboswitch 15D10 [1]): 83.1 fold; Fold increase in riboswitch 15D10-regulated luciferase expression, AML (riboswitch 15D10 [2]): 206.0 fold
15 | C/C(=C(\CCO)SC(=O)c1cc2ccccc2c2ccccc12)N(C=O)Cc1cnc(C)nc1N [Compound M43, (Z)—S-(2-(N-((4-amino-2-methylpyrimidin-5-yl)methyl)formamido)-5-hydroxypent-2-en-3-yl) phenanthrene-9-carbothioate] |  |  |  | Fold increase in riboswitch 15D10-regulated luciferase expression, HEK (riboswitch 15D10 [1]): 10.2 fold; Fold increase in riboswitch 15D10-regulated luciferase expression, AML (riboswitch 15D10 [2]): 95.3 fold
16 | C/C(=C(\CCO)SC(=O)c1ccc(F)c2ccccc12)N(C=O)Cc1cnc(C)nc1N [Compound M44, (Z)—S-(2-(N-((4-amino-2-methylpyrimidin-5-yl)methyl)formamido)-5-hydroxypent-2-en-3-yl) 4-fluoronaphthalene-1-carbothioate] |  | 177 | 314 | 
17 | C/C(=C(\CCO)SC(=O)c1cccc2cccc(F)c12)N(C=O)Cc1cnc(C)nc1N [Compound M45, (Z)—S-(2-(N-((4-amino-2-methylpyrimidin-5-yl)methyl)formamido)-5-hydroxypent-2-en-3-yl) 8-fluoronaphthalene-1-carbothioate] |  | 1.3 | 2.9 | 
18 | C/C(=C(\CCO)SC(=O)c1cccc2cccc(C)c12)N(C=O)Cc1cnc(C)nc1N [Compound M46, (Z)—S-(2-(N-((4-amino-2-methylpyrimidin-5-yl)methyl)formamido)-5-hydroxypent-2-en-3-yl) 8-methylnaphthalene-1-carbothioate] |  | 1.3 | 6 | 
19 | COc1ccc(C(=O)S/C(CCO)=C(/C)N(C=O)Cc2cnc(C)nc2N)c2ccccc12 [Compound M47, (Z)—S-(2-(N-((4-amino-2-methylpyrimidin-5-yl)methyl)formamido)-5-hydroxypent-2-en-3-yl) 4-methoxynaphthalene-1-carbothioate] |  | 25.3 | 85.1 | 
20 | C/C(=C(\CCO)SC(=O)c1ccc2ccccc2c1)N(C=O)Cc1cnc(C)nc1N [Compound M49, (Z)—S-(2-(N-((4-amino-2-methylpyrimidin-5-yl)methyl)formamido)-5-hydroxypent-2-en-3-yl) naphthalene-2-carbothioate] |  | 414 | 202 | 
21 | C/C(=C(\CCO)SC(=O)c1ccc2c(c1)C(C)(C)CCC2(C)C)N(C=O)Cc1cnc(C)nc1N [Compound M50, (Z)—S-(2-(N-((4-amino-2-methylpyrimidin-5-yl)methyl)formamido)-5-hydroxypent-2-en-3-yl) 5,5,8,8-tetramethyl-5,6,7,8-tetrahydronaphthalene-2-carbothioate] |  | 93.5 | 142 | 
22 | C/C(=C(\CCO)SC(=O)c1ccc2ccccc2c1Br)N(C=O)Cc1cnc(C)nc1N [Compound M51, (Z)—S-(2-(N-((4-amino-2-methylpyrimidin-5-yl)methyl)formamido)-5-hydroxypent-2-en-3-yl) 1-bromonaphthalene-2-carbothioate] |  | 392 | 189 | 
23 | COc1ccc2cc(C(=O)S/C(CCO)=C(/C)N(C=O)Cc3cnc(C)nc3N)ccc2c1 [Compound M52, (Z)—S-(2-(N-((4-amino-2-methylpyrimidin-5-yl)methyl)formamido)-5-hydroxypent-2-en-3-yl) 6-methoxynaphthalene-2-carbothioate] |  | 364 | 195 | 
24 | C/C(=C(\CCO)SC(=O)C12CC3CC(CC(C3)C1)C2)N(C=O)Cc1cnc(C)nc1N [Compound M53, S—((Z)-2-(N-((4-amino-2-methylpyrimidin-5-yl)methyl)formamido)-5-hydroxypent-2-en-3-yl) (3r,5r,7r)-adamantane-1-carbothioate] |  | 2.4 | 57 | 
